Entries after “also recorded” stand apart in the source; their conditions may differ.
What was measured:
quadriceps muscle = assay: Proteomic analysis of quadriceps muscle of aged mice treated with 1-methyl-D-tryptophan (Table 1, TOPPGENE enrichment); type: in vivo
Experimental: (§1) Female mice 22 months of age were obtained from the National Institute on Aging and treated with saline (vehicle) or 1-methyl-D-tryptophan (1-MT, Sigma, 452483, lot#MKBZ1441V) at a low dose (10 mg/kg BW) or at a high dose (100 mg/kg BW). Mice were treated daily for 4 weeks. Treatments were administered i.p. with an injection volume of 0.2 ml following IACUC approved procedures. Mice were euthanized by CO2 overdose and muscles harvested for analysis. One quadriceps muscle was snap frozen for proteomics and the other quadriceps muscle fixed in buffered formalin for paraffin embedding and trichrome staining. The tibialis anterior was placed in PBS for amplex red assay.
The IDO inhibitor, 1-methyl-D-tryptophan, blocks kynurenine production and reduces levels of ROS in muscle.

tibialis anterior = assay: Muscle ROS by Amplex red assay in aged mice treated with 1-methyl-D-tryptophan; type: in vivo
Experimental: as §1

quadriceps femoris [1] = assay: Muscle mass and fiber size of quadriceps femoris ex vivo, mice treated with kynurenine for 4 weeks; type: in vivo, C57BL/6 mice; details: young mice, kynurenine 10 mg/kg BW
Experimental: (§2) This example investigated the relationship between kynurenine, a circulating tryptophan metabolite which increases with age, and markers of muscle oxidative stress. C2C12 myoblasts were treated with kynurenine in a dose-dependent manner (0, 1, 10 μM) and reactive oxygen species (“ROS”) was measured using an Amplex red assay. Human myoblasts were also treated with kynurenine (100 μM) and ROS was measured. Female C57BL/6 mice 6 months of age were treated with kynurenine (10 mg/kg BW) or with saline (vehicle control) for 4 weeks. Muscle mass and fiber size were measured from the quadriceps femoris ex vivo, and ROS was measured from paraffin-embedded muscle sections using immunostaining for 4HNE.

C2C12 myoblasts = assay: ROS by Amplex red assay in C2C12 myoblasts treated with kynurenine; type: cell-based
Experimental: as §2

quadriceps femoris [2] = assay: Muscle ROS by 4HNE immunostaining of paraffin-embedded muscle sections, mice treated with kynurenine; type: in vivo, C57BL/6 mice; details: young mice, kynurenine 10 mg/kg BW, 4 weeks, P<0.05
Experimental: as §2

human myoblasts = assay: ROS in human myoblasts treated with kynurenine; type: cell-based
Experimental: as §2

[3] = aged mice, 1-methyl-D-tryptophan treatment
[4] = aged mouse muscle after 1-methyl-D-tryptophan treatment

Cn1cc(C[C@@H](N)C(=O)O)c2ccccc21 [1-methyl-D-tryptophan, reference compound]
factors associated with muscle oxidative stress (proteomic analysis) (quadriceps muscle; [3]): reduced; also recorded: decreases
levels of myosin 4 (proteomic analysis) (quadriceps muscle; [3]): increases
factors associated with muscle degradation (ubiquitin ligases) and oxidative stress (TOPPGENE enrichment of downregulated proteins) (quadriceps muscle; [4]): decreased levels
factors associated with muscle protein synthesis (TOPPGENE enrichment of upregulated proteins) (quadriceps muscle; [4]): increased levels
levels of ROS in muscle (Amplex red assay) (tibialis anterior; 1-methyl-D-tryptophan i.p. daily for 4 weeks): decrease
kynurenine production (tibialis anterior; 1-methyl-D-tryptophan treatment): blocks

Nc1ccccc1C(=O)CC(N)C(=O)O (stereo not shown) [kynurenine]
quadriceps weight relative to body weight, reduction compared to controls (quadriceps femoris [1]): 10%
muscle fiber size compared to controls (quadriceps femoris [1]; P<0.01): significantly lower
reactive oxygen species (H2O2 concentration/protein concentration) (C2C12 myoblasts; 1 μm and 10 μm kynurenine, FIG. 1A): increases
ROS increase (C2C12 myoblasts; kynurenine at both low and high concentrations (1, 10 μM), P<0.01): 2 fold
ROS increase based on 4HNE staining, compared to control (quadriceps femoris [2]): 20%
ROS (human myoblasts; 100 μM kynurenine): increased
reactive oxygen species (human myoblasts; 10 μm kynurenine, FIG. 1B): increases
